In US8952024B2, “Herbicidal pyrimidone derivatives” (E I du Pont de Nemours and Company, priority 2009, dated 2015):

Columns and labels:
Experiment in all cases: Test C plant response
Type in all cases: in vivo
[1] = tested on: field violet (Viola arvensis); conditions: Preemergence, scale 0 to 100
[2] = tested on: Italian ryegrass (Lolium multiflorum); conditions: Preemergence, scale 0 to 100
[3] = tested on: chickweed (common chickweed, Stellaria media); conditions: Preemergence, 125 g ai/ha; scale 0 to 100
[4] = tested on: winter wheat (Triticum aestivum); conditions: Preemergence, scale 0 to 100
[5] = tested on: oilseed rape (Brassica napus); conditions: Preemergence, scale 0 to 100
[6] = tested on: pigweed (Amaranthus retroflexus); conditions: Preemergence, scale 0 to 100
[7] = tested on: galium (catchweed bedstraw, Galium aparine); conditions: Preemergence, scale 0 to 100
[8] = tested on: winter barley (Hordeum vulgare); conditions: Preemergence, scale 0 to 100
[9] = tested on: canarygrass (Phalaris minor); conditions: Preemergence, 125 g ai/ha; scale 0 to 100
[10] = tested on: bromegrass (downy bromegrass, Bromus tectorum); conditions: Preemergence, scale 0 to 100
[11] = tested on: windgrass (Apera spica-venti); conditions: Preemergence, scale 0 to 100

## Cc1ccccc1-n1c(-c2ccccc2)ncc(C(=O)C2=C(O)CCCC2=O)c1=O [Compound 12]
[1]; 62 g ai/ha
  Plant response rating: Field Violet: 0
[1]; 125 g ai/ha
  Plant response rating: Field Violet: 0
[1]; 16 g ai/ha
  Plant response rating: Field Violet: 0
[1]; 31 g ai/ha
  Plant response rating: Field Violet: 0
[2]; 62 g ai/ha
  Plant response rating: Ryegrass, Italian: 0
[2]; 125 g ai/ha
  Plant response rating: Ryegrass, Italian: 0
[2]; 16 g ai/ha
  Plant response rating: Ryegrass, Italian: 0
[2]; 31 g ai/ha
  Plant response rating: Ryegrass, Italian: 0
[3]
  Plant response rating: Chickweed: 50
[4]; 62 g ai/ha
  Plant response rating: Wheat, Winter: 0
[4]; 125 g ai/ha
  Plant response rating: Wheat, Winter: 0
[4]; 16 g ai/ha
  Plant response rating: Wheat, Winter: 0
[4]; 31 g ai/ha
  Plant response rating: Wheat, Winter: 0
[5]; 62 g ai/ha
  Plant response rating: Oilseed Rape: 30
[5]; 125 g ai/ha
  Plant response rating: Oilseed Rape: 40
[5]; 16 g ai/ha
  Plant response rating: Oilseed Rape: 0
[5]; 31 g ai/ha
  Plant response rating: Oilseed Rape: 20
[6]; 62 g ai/ha
  Plant response rating: Pigweed: 50
[6]; 125 g ai/ha
  Plant response rating: Pigweed: 65
[6]; 16 g ai/ha
  Plant response rating: Pigweed: 0
[6]; 31 g ai/ha
  Plant response rating: Pigweed: 0
[7]; 62 g ai/ha
  Plant response rating: Galium: 35
[7]; 125 g ai/ha
  Plant response rating: Galium: 35
[7]; 16 g ai/ha
  Plant response rating: Galium: 0
[7]; 31 g ai/ha
  Plant response rating: Galium: 0
[8]; 62 g ai/ha
  Plant response rating: Barley, Winter: 0
[8]; 125 g ai/ha
  Plant response rating: Barley, Winter: 0
[8]; 16 g ai/ha
  Plant response rating: Barley, Winter: 0
[8]; 31 g ai/ha
  Plant response rating: Barley, Winter: 0
[9]
  Plant response rating: Canarygrass: 20
[10]; 62 g ai/ha
  Plant response rating: Bromegrass, Downy: 0
[10]; 125 g ai/ha
  Plant response rating: Bromegrass, Downy: 0
[10]; 16 g ai/ha
  Plant response rating: Bromegrass, Downy: 0
[10]; 31 g ai/ha
  Plant response rating: Bromegrass, Downy: 0
[11]; 62 g ai/ha
  Plant response rating: Windgrass: 40
[11]; 125 g ai/ha
  Plant response rating: Windgrass: 40
[11]; 16 g ai/ha
  Plant response rating: Windgrass: 20
[11]; 31 g ai/ha
  Plant response rating: Windgrass: 20
